Measured values taken from patent US12528774B2, “Thiosemicarbazone compounds and uses thereof” (The Regents of the University of California, priority 2019, dated 2026).

Assays:
MIAPACA2 cells [1] = experiment: Viability assay (trypan blue) in MIAPACA2 cells with co-treatments; format: cell-based
Description: FIG. 1A: IC50 values in a panel of human and mouse prostate cancer (PC)(cell lines CF-2, LNCaP, 22Rv1, RM-1, MyC CaP); small cell lung carcinoma (SCLC)(cell lines NCI-H1963, NCI-H146, NCI-H526); pancreatic ductal adenocarcinoma (PDAC)(CFPAC1, SW1990, HS766T, PANC0203, PANC0813, ASPC1, HPAFII, PATU8902, PANC0327, PANC1, YAPC, L36PL, XWR200, HUPT4, A13A, SUIT2, DAN-G, BxPC3, HPAC, PSN1, SU8686, KP4662, MIAPACA2, PATU8988T); and leukemia (cell lines KG-1, TF-1, Jurkat, MOLT-4, p185-R, MV4-11) models treated with HCT13+Cu(II) (20 μM) for 72 h measured by CellTiterGlo. […] (mean±SD, n=2, one-way ANOVA corrected for multiple comparisons by Bonferroni adjustment, * P<0.05; **P<0.01; ***P<0.001).
FIGS. 2A-2I. FIG. 2A: representative immunoblots of MIAPACA2 PDAC cells treated as indicated for 24h. FIGS. 2B-2C: reactive oxygen species (ROS) measurement using CM-H2DCFDA staining after HCT13 (25 nM)+Cu(II) (20 μM) treatment for 24h; mean fluorescence intensity (MFI); mean±SD, n=2, Student t-test, ***P<0.001. FIG. 2D-2E: mitochondrial ROS detection using MitoSOX staining in MIAPACA2 PDAC cells treated with HCT-13 (25 nM)+Cu(II) (20 μM) for 24h; mean±SD, n=2, Student t-test, ***P<0.001. FIG. 2F: oxygen consumption rate (OCR) of MIAPACA2 PDAC cells treated with HCT-13 (25 nM)+Cu(II) (20 μM). FIG. 2G: OCR of isolated mitochondria measured with or without HCT-13 (25 nM)+Cu(II) (20 μM). FIG. 2H: viability of 143 BTK parental (wild type, WT) and po cells after 48 h of treatment with the indicated HCT-13 concentrations+Cu(II) (20 μM) treatment, assessed with trypan blue staining; mean±SD, n=2, Student t-test, ***P<0.001. FIG. 2I: cell viability by trypan blue staining in MIAPACA2 PDAC cells to interrogate the interaction of HCT-13 (25 nM)+Cu(II) (20 μM) with 2-DG (2 mM) for 48 h; mean±SD, n=2, Student t-test, ***P<0.001.
FIG. 5A: rescue of HCT-13 (25 nM)-induced cell death by Uridine (rU) (200 μM), Pyruvate (1 mM), or both following 48h of treatment. FIG. 5B: measurement of DHODH activity using recombinant DHODH assay following treatment with indicated perturbations for 2 min. DHODH inhibitor used: NITD-982-1 μM; HCT-13-100 nM, 1 μM, (100 nM data shown); Cu(II)—20 μM. (mean±SD, n=2, Student t-test, * P<0.05).
Viability/Apoptosis assay: Viable cells were measured by Trypan blue staining using vi-cell counter (Beckman Coulter, CA, USA). Apoptosis and cell death were assayed using Annexin V-FITC and PI according to manufacturer's instructions (FITC Annexin V Apoptosis Detection Kit, BD Sciences, #556570).
Viability/Apoptosis assay. Viable cells were measured by Trypan blue staining using a Vi-Cell counter (Beckman Coulter, CA, USA). […]

[2] = tested on: PDAC (MIAPACA2, CFPAC-1) and PC (C4-2) cell lines; experiment: Cell death assays (Annexin V/PI, trypan blue) of HCT13 with ATR inhibition; format: cell-based; conditions: ATRi 250 nM VE-822, Cu(II) 20 μM, 72 h
Method: FIGS. 4A-4G show the chemical genomics screen identifying the replication stress response pathway as an actionable co-dependency of HCT13-treated cells. FIG. 4A: experimental design of a synthetic lethality screen using a library of protein kinase inhibitors against HCT13-treated cells in the presence of Cu(II) (20 μM). FIG. 4B: radar plot of screen results. FIG. 4C: z-score values for kinase inhibitors within the DNA damage response/replication stress response (DDR/RSR) pathway module. FIG. 4D: representative immunoblot of replication stress and cell death biomarkers in MIAPACA2 PDAC cells treated with HCT13 (10 nM)+Cu(II) (20 μM). […] (mean±SD, n=2, one-way ANOVA corrected for multiple comparisons by Bonferroni adjustment, * P<0.05; ** P<0.01; *** P<0.001; **** P<0.0001).
FIGS. 6A-6C provide the identification of resistance mechanisms to HCT13 using a synthetic lethality screen. […] (mean±SD, n=2, one-way ANOVA corrected for multiple comparisons by Bonferroni adjustment, * P<0.05; ** P<0.01; *** P<0.001; **** P<0.0001). […]
Viability/Apoptosis assay: Viable cells were measured by Trypan blue staining using vi-cell counter (Beckman Coulter, CA, USA). […]

MIAPACA2 cells [3] = experiment: Proliferation assay (CellTiter-Glo, 72 h) in MIAPACA2 cells; format: cell-based, human

## CN(C)C(=S)N/N=C/c1nccc2cc(F)ccc12 (mixture of isomers) [HCT13, (E)-2-((6-Fluoroisoquinolin-1-yl)methylene)-N,N-dimethylhydrazine-1-carbothioamide and (Z)-2-((6-Fluoroisoquinolin-1-yl)methylene)-N,N-dimethylhydrazine-1-carbothioamide]
MIAPACA2 cells [1]; HCT13 25 nM + Cu(II) 20 μM, 24 h, BCPS 300 μM
  cytotoxicity in presence of bathocuproine disulfonate (BCPS): abrogated
MIAPACA2 cells [1]; HCT-13 25 nM + Cu(II) 20 μM, 2-DG 2 mM, 48 h
  activity with co-administration of 2-deoxyglucose (2-DG): significantly potentiated
MIAPACA2 cells [1]; HCT-13 25 nM, pyruvate 1 mM, 48 h
  cytotoxicity with pyruvate supplementation: not by pyruvate
MIAPACA2 cells [1]; HCT-13 25 nM, uridine 200 μM, 48 h
  cytotoxicity with uridine (rU) supplementation: partially abolished
[2]
  interaction with ATR inhibition (cell death): synergistic interaction
MIAPACA2 cells [3]; Fe(II) 20 μM
  antiproliferative potency with Fe(II) supplementation: diminished but still active
MIAPACA2 cells [3]; Zn(II) 20 μM
  antiproliferative potency with Zn(II) supplementation: largely inactive
